According to PMC7802075 (ACS Infectious Diseases, 2020):
Like-named read-outs stand apart in the source and are kept apart here.

Assays:
[1] = test system: L. major (FV1) promastigotes; test: Antipromastigote resazurin assay, L. major (FV1) wild type; format: cell-based, Leishmania major; settings: for inhibition of growth at 10000 µM / EC50: Leishmania major; for EC50 / antileishmanial activity: secondary dose response; for EC50: L. major (FV1), read-out: EC50 against L. major promastigotes
[2] = target: T1, LmjIPCS (inositol phosphorylceramide synthase from L. major) (Leishmania major, UniProt E9AFX2); test: biochemical; format: biochemical
T1 sequence (E9AFX2 1-338): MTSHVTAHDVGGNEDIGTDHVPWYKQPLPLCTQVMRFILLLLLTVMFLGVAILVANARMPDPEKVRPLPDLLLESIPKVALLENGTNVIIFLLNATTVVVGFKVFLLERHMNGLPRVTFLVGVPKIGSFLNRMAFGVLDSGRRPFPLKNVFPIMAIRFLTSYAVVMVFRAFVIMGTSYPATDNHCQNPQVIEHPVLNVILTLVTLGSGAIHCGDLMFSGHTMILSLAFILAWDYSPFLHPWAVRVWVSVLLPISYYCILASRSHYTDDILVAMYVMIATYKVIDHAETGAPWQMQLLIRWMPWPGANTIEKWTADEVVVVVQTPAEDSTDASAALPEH

[3] = NINDS set screen against L. major promastigotes, single concentration printed as 10mM
[4] = NINDS set screen, single concentration printed as 20mM
[5] = L. major promastigotes, dose response

Molecule | 10mM inhibition L. major [1, 3] [%] | 20mM inhibition LmjIPCS [2] [%] | 20mM inhibition LmjIPCS [2, 4] [%] | further results
CCCCOc1ccc(OCCCN2CCOCC2)cc1 [PRAMOXINE] | <5 | 71 | – | –
CC(CN1c2ccccc2Sc2ccccc21)N(C)C (centres unmarked) [PROMETHAZINE] | <5 | – | 78 | –
NC[C@@H]1O[C@H](O[C@H]2[C@@H](O)[C@H](O[C@@H]3[C@@H](O)[C@H](N)C[C@H](N)[C@H]3O[C@H]3O[C@H](CN)[C@@H](O)[C@H](O)[C@H]3N)O[C@@H]2CO)[C@H](N)[C@@H](O)[C@@H]1O [NEOMYCIN] | <5 | – | 88 | –
CC(C)CC(N(C)C)C1(c2ccc(Cl)cc2)CCC1 (centres unmarked) [SIBUTRAMINE] | <5 | 74 | – | –
Clc1ccc(COC(Cn2ccnc2)c2ccc(Cl)cc2Cl)c(Cl)c1 (centres unmarked) [MICONAZOLE] | – | – | – | 10mM inhibition L. major [1]: <5%
CN1[C@@H]2CC[C@H]1C[C@@H](OC(c1ccccc1)c1ccccc1)C2 [BENZTROPINE] | – | – | – | 10mM inhibition L. major [1]: <5%
CN(C)CCC=C1c2ccccc2CCc2ccccc21 [AMITRIPTYLINE] | <5 | 82 | – | –
CCC(=O)O[C@H]1CC[C@H]2[C@@H]3CCc4cc(O)ccc4[C@H]3CC[C@]12C [ESTRADIOL PROPIONATE] | <5 | – | 74 | –
CCCCC(CC)CN1CN(CC(CC)CCCC)CC(C)(N)C1 (centres unmarked) [HEXETIDINE] | <5 | – | 85 | –
CCN1C[C@]2(COC)[C@H](O)C[C@H](OC)[C@@]34[C@@H]5C[C@@]6(O)[C@H](OC(=O)c7ccccc7)[C@@H]5[C@@](OC(C)=O)([C@@H]([C@H](OC)[C@H]23)[C@@H]14)[C@@H](O)[C@@H]6OC [ACONITINE] | <5 | 97 | – | –
CNCCCC12CCC(c3ccccc31)c1ccccc12 [MAPROTILINE] | – | – | – | 10mM inhibition L. major [1]: <5%
Cc1cc(C(C)(C)C)c(O)c(C)c1CC1=NCCN1 [OXYMETAZOLINE] | <5 | – | 75 | –
C[C@]12CC[C@@H]3c4ccc(O)cc4CC[C@H]3[C@@H]1CC[C@@H]2OC(=O)CCC1CCCC1 [ESTRADIOL CYPIONATE] | <5 | 83 | – | –
CC(CN(C)C)CN1c2ccccc2Sc2ccccc21 (centres unmarked) [TRIMEPRAZINE] | <5 | 71 | – | –
CCN(CC)CCOc1ccc(C(=C(Cl)c2ccccc2)c2ccccc2)cc1 [clomiphene 4, clomiphene, reference compound] | – | – | – | 10mM inhibition L. major [1]: 65%; ED50 vs L. major [1]: 6570 µM
Cc1cc(N)c2ccccc2[n+]1CCCCCCCCCC[n+]1c(C)cc(N)c2ccccc21 | <5 | 72 | – | –
GINKGOLIC ACID | <5 | 73 | – | –
COC1=C[C@@H](C)[C@@H]2C[C@H]3OC(=O)C[C@H]4C(C)=C(OC)C(=O)[C@H]([C@@]2(C)C1=O)[C@@]34C [QUASSIN] | – | – | 70 | inhibition of growth at 10000 µM [1, 3]: < 5%
CCOC(=O)C1=C(COCCN)NC(C)=C(C(=O)OC)C1c1ccccc1Cl (centres unmarked) [amlodipine 2, amlodipine, reference compound] | 62 | 80 | – | ED50 vs L. major [1, 5]: 1910 µM; EC50 [1]: > 1 µM; IC50 [2]: 3 µM; LmjIPCS inhibition ([2]; secondary dose response): confirmed
CC(C)NC[C@@H](O)COc1cccc2ccccc12 [DEXPROPRANOLOL] | – | – | – | 10mM inhibition L. major [1]: <5%
O=C1c2c(O)cccc2Cc2cccc(O)c21 [ANTHRALIN] | <5 | – | 70 | –
Fc1ccc(C(c2ccc(F)cc2)N2CCN(C/C=C/c3ccccc3)CC2)cc1 [flunarizine 7, flunarizine, reference compound] | – | – | – | 10mM inhibition L. major [1]: 56%; ED50 vs L. major [1]: 1730 µM
CNCCC=C1c2ccccc2CCc2ccccc21 [NORTRIPTYLINE] | – | 81 | – | 10mM inhibition L. major [1]: <5%
CCCCCCCCCCCCCCCC[N+](C)(C)C [CETRIMONIUM] | <5 | 75 | – | –
C=CC1=C(C)c2cc3[nH]c(cc4nc(cc5[nH]c(cc1n2)c(C)c5CCC(=O)O)C(CCC(=O)O)=C4C)c(C)c3C=C [PROTOPORPHYRIN IX] | <5 | – | 77 | –

Molecule | 10mM inhibition L. major [1, 3] [%] | 20mM inhibition LmjIPCS [2] [%] | 20mM inhibition LmjIPCS [2, 4] [%] | further results
CN(C)CCCN1c2ccccc2Sc2ccccc21 [PROMAZINE] | <5 | 77 | – | –
[H]/N=C(/NCCCCC)N/N=C/c1c[nH]c2ccc(OC)cc12 [TEGASEROD] | – | – | 71 | inhibition of growth at 10000 µM [1, 3]: < 5%
N=C1C=CC(=C(c2ccc(N)cc2)c2ccc(N)cc2)C=C1 [pararosaniline 8, pararosaniline] | 75 | 78 | – | ED50 vs L. major [1, 5]: 9780 µM; antileishmanial activity ([1]; L. major promastigotes): poor antileishmanial activity; IC50 ([2]; dose response, read-out: IC50 vs LmjIPCS): > 100 µM; IC50 against LmjIPCS ([2]; secondary dose response, commercially sourced samples): could not be determined
CCCC1O[C@@H]2C[C@H]3[C@@H]4CCC5=CC(=O)C=C[C@]5(C)[C@H]4[C@@H](O)C[C@]3(C)[C@]2(C(=O)CO)O1 (some centres unmarked) [BUDESONIDE] | <5 | – | 79 | –
CN1CCN(CCCN2c3ccccc3Sc3ccc(Cl)cc32)CC1 [prochlorperazine edisylate 11, prochlorperazine edisylate, reference compound] | – | – | – | 10mM inhibition L. major [1]: 11%; ED50 vs L. major [1]: 12900 µM
CC1=C2C(=CO[C@H](C)[C@H]2C)C(O)=C(C(=O)O)C1=O [CITRININ] | <5 | 76 | – | –
TANNIC ACID | <5 | 91 | – | –
CCN(CCCc1ccccc1)CCCc1ccccc1 [ALVERINE] | <5 | – | 70 | –
CO[C@]12C[C@@H](COC(=O)c3cncc(Br)c3)CN(C)[C@@H]1Cc1cn(C)c3cccc2c13 [NICERGOLINE] | <5 | 80 | – | –
Cc1nnc(NS(=O)(=O)c2ccc(N)cc2)s1 [sulfamethizole 14, sulfamethizole, reference compound] | 68 | 77 | – | ED50 vs L. major [1, 5]: 39600 µM; antileishmanial activity ([1]; L. major promastigotes): poor antileishmanial activity; IC50 [2]: > 100 µM; IC50 against LmjIPCS [2]: could not be determined
CN(C)CCC=C1c2ccccc2COc2ccccc21 [doxepin 5, doxepin, reference compound] | – | – | – | 10mM inhibition L. major [1]: 44%; ED50 vs L. major [1]: 30000 µM
CN1CCN(CCCN2c3ccccc3Sc3ccc(C(F)(F)F)cc32)CC1 [trifluoperazine 16, trifluoperazine, reference compound] | 67 | 86 | – | ED50 vs L. major [1, 5]: 7170 µM; EC50 [1]: > 1 µM; IC50 [2]: 5.03 µM; LmjIPCS inhibition ([2]; secondary dose response): confirmed
COc1ccccc1OCCNCC(O)COc1cccc2[nH]c3ccccc3c12 (centres unmarked) [CARVEDILOL] | <5 | 73 | – | –
CCc1nc(N)nc(N)c1-c1ccc(Cl)cc1 [PYRIMETHAMINE] | <5 | – | 77 | –
Cc1cccc(CN2CCN(C(c3ccccc3)c3ccc(Cl)cc3)CC2)c1 (centres unmarked) [MECLIZINE] | <5 | 78 | – | –
CC(C)=CCc1c2c(c3occ(-c4ccc(O)c(O)c4)c(=O)c3c1O)C=CC(C)(C)O2 [POMIFERIN] | <5 | – | 73 | –
CN[C@H]1CC[C@@H](c2ccc(Cl)c(Cl)c2)c2ccccc21 [sertraline 13, sertraline, reference compound] | – | – | – | ED50 vs L. major [1]: 14580 µM
CN1CCc2c(c3ccccc3n2Cc2ccccc2)C1 [MEBHYDROLIN] | <5 | – | 72 | –
C=C[C@H]1C[N@@]2CC[C@H]1C[C@H]2[C@H](O)c1ccnc2ccc(OC)cc12 [QUININE] | <5 | 70 | – | –
CC(NCCC(c1ccccc1)c1ccccc1)c1ccccc1 (centres unmarked) [fendiline 6, fendiline, reference compound] | 74 | – | 71 | ED50 vs L. major [1, 5]: 7640 µM; EC50 [1]: > 1 µM; IC50 [2]: 4.22 µM; LmjIPCS inhibition ([2]; secondary dose response): confirmed
CC(C)NCC(O)COc1cccc2ccccc12 (centres unmarked) [propranolol 12, propranolol, reference compound] | – | – | – | 10mM inhibition L. major [1]: 84%; ED50 vs L. major [1]: 4910 µM
CCCc1cc(=O)[nH]c(=S)[nH]1 [PROPYLTHIOURACIL] | – | 73 | – | 10mM inhibition L. major [1]: <5%
CN(C)CCCN1c2ccccc2Sc2ccc(Cl)cc21 [chlorpromazine 3, chlorpromazine, reference compound] | 76 | 88 | – | ED50 vs L. major [1, 5]: 9800 µM; EC50 [1]: > 1 µM; IC50 [2]: 4.7 µM; LmjIPCS inhibition ([2]; secondary dose response): confirmed
CN(C)CCCN1c2ccccc2CCc2ccccc21 [IMIPRAMINE] | <5 | – | – | –
